Laboratory results reported in the supplement of paper PMC13380429.

Key:
Conditions in all cases: 72 h
Caco-2 [1] = test: cell viability relative to DMSO; higher = less toxic
Calu-3 [2] = test: as above
HepG2 [3] = test: as above
U2OS [4] = test: as above
Vero E6 [5] = test: as above
Caco-2 [6] = test: relative viability EC50 (midpoint between 100% and the lowest measured viability); higher = less toxic
Calu-3 [7] = test: as above
HepG2 [8] = test: as above
U2OS [9] = test: as above
Vero E6 [10] = test: as above
Caco-2 [11] = test: drug sensitivity score (DSS) for viability; higher = more toxic; extreme values may be limits of the assay
Calu-3 [12] = test: as above
HepG2 [13] = test: as above
U2OS [14] = test: as above
Vero E6 [15] = test: as above

| SMILES | cell viability (Caco-2 [1]; 1 nM) [%] | cell viability (Caco-2 [1]; 10 nM) [%] | cell viability (Caco-2 [1]; 100 nM) [%] | cell viability (Caco-2 [1]; 1000 nM) [%] | cell viability (Caco-2 [1]; 10000 nM) [%] | cell viability (Calu-3 [2]; 1 nM) [%] | cell viability (Calu-3 [2]; 10 nM) [%] | cell viability (Calu-3 [2]; 100 nM) [%] | cell viability (Calu-3 [2]; 1000 nM) [%] | cell viability (Calu-3 [2]; 10000 nM) [%] | cell viability (HepG2 [3]; 1 nM) [%] | cell viability (HepG2 [3]; 10 nM) [%] | cell viability (HepG2 [3]; 100 nM) [%] | cell viability (HepG2 [3]; 1000 nM) [%] | cell viability (HepG2 [3]; 10000 nM) [%] | cell viability (U2OS [4]; 1 nM) [%] | cell viability (U2OS [4]; 10 nM) [%] | cell viability (U2OS [4]; 100 nM) [%] | cell viability (U2OS [4]; 1000 nM) [%] | cell viability (U2OS [4]; 10000 nM) [%] | cell viability (Vero E6 [5]; 1 nM) [%] | cell viability (Vero E6 [5]; 10 nM) [%] | cell viability (Vero E6 [5]; 100 nM) [%] | cell viability (Vero E6 [5]; 1000 nM) [%] | cell viability (Vero E6 [5]; 10000 nM) [%] | relative viability EC50 (Caco-2 [6]) [µM] | relative viability EC50 (Calu-3 [7]) [µM] | relative viability EC50 (HepG2 [8]) [µM] | relative viability EC50 (U2OS [9]) [µM] | relative viability EC50 (Vero E6 [10]) [µM] | drug sensitivity score (Caco-2 [11]) | drug sensitivity score (Calu-3 [12]) | drug sensitivity score (HepG2 [13]) | drug sensitivity score (U2OS [14]) | drug sensitivity score (Vero E6 [15]) |
| --- | --- | --- | --- | --- | --- | --- | --- | --- | --- | --- | --- | --- | --- | --- | --- | --- | --- | --- | --- | --- | --- | --- | --- | --- | --- | --- | --- | --- | --- | --- | --- | --- | --- | --- | --- |
| COc1nccc(-c2c(-c3ccc(F)cc3)ncn2[C@H]2CC[C@H](O)CC2)n1 | 84.5 | 90.9 | 93.1 | 88.6 | 93.9 | 99.5 | 106 | 82.2 | 81.7 | 85.6 | 98.9 | 97.6 | 103 | 104 | 108 | 95.9 | 102 | 93.5 | 98.7 | 98.8 | 94.7 | 94.3 | 92.7 | 87.5 | 101 | > 10 | > 10 | > 10 | > 10 | > 10 | 0 | 3.8 | 0 | 0 | 0 |
| C[C@@]1(c2cc(-c3cncnc3)c(F)cc2F)CCSC(N)=N1 | 98.7 | 92.8 | 92.3 | 95.1 | 99.4 | 98 | 104 | 102 | 101 | 101 | 106 | 112 | 101 | 108 | 97.3 | 102 | 97.5 | 102 | 97.4 | 100 | 105 | 103 | 105 | 101 | 96 | > 10 | > 10 | > 10 | > 10 | > 10 | 0 | 0 | 0 | 0 | 0 |
| O=C(Nc1ccc(C(F)(F)F)cn1)N1CCN(c2ncccc2C(F)(F)F)CC1 | 97.9 | 99.3 | 97 | 96 | 92.1 | 99.3 | 104 | 93 | 100 | 92.8 | 108 | 91.7 | 105 | 98.4 | 101 | 94.1 | 98.5 | 102 | 99.4 | 100 | 102 | 93.9 | 94.9 | 101 | 103 | > 10 | > 10 | > 10 | > 10 | > 10 | 0 | 0 | 0 | 0 | 0 |
| O=C(Nc1ccccc1Br)N[C@@H]1CCN(c2ccc(C(F)(F)F)cn2)C1 | 86.7 | 97.2 | 97.9 | 98 | 86.9 | 96.1 | 98.5 | 97.1 | 97.4 | 96.8 | 103 | 106 | 103 | 97.8 | 99.2 | 98.9 | 102 | 97.4 | 104 | 94.7 | 108 | 100 | 103 | 99.8 | 96.9 | > 10 | > 10 | > 10 | > 10 | > 10 | 0 | 0 | 0 | 0 | 0 |
| O=C(C[C@H]1CC(c2ccc(F)cc2F)=NO1)N1CCOCC1 (racemic) [CPSI-1306-(+/-)] | 93.7 | 105 | 107 | 90.9 | 104 |  |  |  |  |  | 101 | 107 | 96.4 | 95.6 | 104 | 95.7 | 99.3 | 99.1 | 102 | 104 | 95.6 | 97.4 | 93.6 | 95 | 106 | > 10 |  | > 10 | > 10 | > 10 | 0 |  | 0 | 0 | 0 |
| CCCCCCCCCCCCCCCCCCCCCC(=O)O [AGP-103] | 104 | 90.4 | 96.5 | 106 | 99.9 |  |  |  |  |  | 97.6 | 94.8 | 98.5 | 95.5 | 92.7 | 99.8 | 93.9 | 98.3 | 101 | 102 | 105 | 106 | 100 | 97.9 | 99.1 | > 10 |  | > 10 | > 10 | > 10 | 0 |  | 0 | 0 | 0 |
| COc1cc2c(cc1NS(=O)(=O)c1ccc(Br)cc1C)n(C)c(=O)n2C [OF-1] | 94 | 95.3 | 102 | 86.2 | 78.2 |  |  |  |  |  | 96.5 | 101 | 97.1 | 87.8 | 42.3 | 99.1 | 94.6 | 103 | 93 | 88.3 | 105 | 102 | 96.4 | 99.7 | 88 | > 10 |  | 1.69 | > 10 | > 10 | 2.1 |  | 5.1 | 0.3 | 0.1 |
| CN[C@@H]1[C@@H](O[C@H]2O[C@H](CO)[C@@H](N)[C@H](O)[C@H]2O)O[C@H]2C[C@@H](N)[C@@H](O[C@H]3[C@H](O)[C@@H](O)[C@H](N)C[C@@H]3N)O[C@@H]2[C@@H]1O [apramycin] | 98 | 89 | 104 | 104 | 92.9 | 97.8 | 99.6 | 100 | 91.5 | 74.8 | 106 | 98.1 | 107 | 99.3 | 97.5 | 105 | 100 | 92.8 | 104 | 99.9 | 102 | 95.3 | 93.2 | 99.9 | 102 | > 10 |  | > 10 | > 10 | > 10 | 0 | 2.1 | 0 | 0 | 0 |
| CC(C)(c1ccc(O)cc1)c1ccc(O)cc1 [bisphenol-A] | 92.2 | 111 | 102 | 97.3 | 88.8 |  |  |  |  |  | 98.7 | 94.4 | 103 | 94.6 | 106 | 101 | 109 | 99.6 | 107 | 102 | 107 | 105 | 99.2 | 98 | 88.6 | > 10 |  | > 10 | > 10 | > 10 | 0.1 |  | 0 | 0 | 0.1 |
| O=P1(N(CCCl)CCCl)NCCCO1 (stereo not given) [cyclophosphamide] | 100 | 100 | 95.6 | 86.7 | 98.6 |  |  |  |  |  | 91.9 | 98.9 | 91.5 | 99.8 | 105 | 102 | 102 | 101 | 95.5 | 99.2 | 97.6 | 99.8 | 99.4 | 98.2 | 94 | > 10 |  | > 10 | > 10 | > 10 | 0 |  | 0 | 0 | 0 |
| CNc1cc2[nH]c(=O)n(-c3ccc(NC(=O)NS(=O)(=O)c4ccc(Cl)s4)cc3)c(=O)c2cc1F [elinogrel] | 95.7 | 103 | 97.2 | 98.3 | 101 |  |  |  |  |  | 100 | 91.4 | 89.7 | 94.1 | 99.8 | 95.6 | 101 | 100 | 103 | 104 | 94.6 | 95.2 | 95.2 | 95.3 | 100 | > 10 |  | > 10 | > 10 | > 10 | 0 |  | 0 | 0 | 0 |
| CON [methoxyamine] | 102 | 102 | 99.9 | 96.9 | 100 |  |  |  |  |  | 110 | 110 | 102 | 99.7 | 96.8 | 99.2 | 103 | 96.7 | 103 | 96.4 | 108 | 94.6 | 99.3 | 106 | 106 | > 10 |  | > 10 | > 10 | > 10 | 0 |  | 0 | 0 | 0 |
| COc1ccc2cc([C@H](C)C(=O)O)ccc2c1 [naproxen] | 95.1 | 101 | 102 | 94.9 | 95.3 |  |  |  |  |  | 106 | 103 | 104 | 100 | 99.4 | 101 | 102 | 98.4 | 96.8 | 102 | 109 | 97.8 | 98.2 | 101 | 100 | > 10 | > 10 | > 10 | > 10 | > 10 | 0 | 0 | 0 | 0 | 0 |
| O=C(O)CCCNC(=O)c1cccnc1 [pikamilone] | 99.8 | 98.3 | 98.4 | 95.6 | 99.8 |  |  |  |  |  | 107 | 113 | 99.8 | 110 | 94.6 | 106 | 97.4 | 103 | 99.4 | 104 | 102 | 105 | 102 | 102 | 98.4 | > 10 |  | > 10 | > 10 | > 10 | 0 |  | 0 | 0 | 0 |
| CC(C)(Oc1ccc(Cl)cc1)C(=O)N1CSCC1C(=O)O (stereo not given) [timofibrate] | 87.1 | 99.6 | 95.7 | 98.9 | 103 |  |  |  |  |  | 99 | 102 | 108 | 96.8 | 113 | 95.5 | 105 | 98.2 | 103 | 104 | 99.5 | 104 | 96 | 94.8 | 105 | > 10 |  | > 10 | > 10 | > 10 | 0 |  | 0 | 0 | 0 |
| Cc1cc(Nc2ncnc3ccc(NC4=NC(C)(C)CO4)cc23)ccc1Oc1ccn2ncnc2c1 [tucatinib] | 98.9 | 103 | 99.8 | 92.5 | 52 | 105 | 93.3 | 70.7 | 47.3 | 28.4 | 101 | 96 | 103 | 98.4 | 87.1 | 100 | 104 | 95.3 | 98.2 | 87.9 | 99.4 | 95.8 | 95.1 | 86.9 | 75.6 |  | 0.191 | > 10 | > 10 | > 10 | 3.8 | 13.7 | 0.2 | 0.1 | 2 |
